These compounds were tested on Angptl4 mRNA expression in 3T3-L1 cells (assay: Angptl4 mRNA expression (RT-qPCR) in 3T3-L1 cells). Details: antagonist 0, 0.1, 1 and 10 μM, against GW7647, GW501516 or rosiglitazone respectively.
Assay type: cell-based, murine
Method: To study the effect of CpFAs on the regulation of Angptl4 expression, Angptl4 mRNA expression levels were quantified by real-time qPCR in cultured murine 3T3-L1 cells. […] FIG. 7A-C show a dose-dependent response to representative CpFAs in murine 3T3-L1 cells.
3T3-L1 cell culture and PPAR activation: 3T3-LI preadipocytes were cultured in growth medium (high glucose Dulbecco's Modified Eagle Medium (DMEM) containing 10% calf serum (CS), 1× Pencillin/Streptomycin, and 1× Glutamax) and seeded in multi-well (12-or 24-well) plates. PPAR specificity of gene target activation was determined in 3T3-L1 preadipocytes using well-described agonists and antagonists for PPAR-α, PPAR-δ, or PPAR-γ. On the day of treatment, preadipocytes were serum starved in 0.25% CS in growth medium for 2-4 hours. Cells were pretreated with increasing concentrations (0, 0.1, 1 and 10 μM) of PPAR antagonists (GW6471 for PPAR-α, GSK3787 for PPARδ, and T0070907 for PPARγ) in serum starve medium. After 1 hour, selective PPAR agonists were added (GW7647 (PPAR-α), GW501516 (PPAR-δ), and rosiglitazone (PPAR-γ)) and incubated for 24 hours. Lysates were collected for RNA extraction. […] CpFA treatments (final concentrations of 37.5, 75, and 150 μM) were prepared in 0.25% serum starve media plus 3% BSA, followed by heating (55° C.) and sonicating for 30 minutes. Treatments were allowed to cool to 37° C. and then added to 3T3-L1 preadipocytes and incubated for 24 hours. Lysates for RNA isolation were collected.
Angptl4 expression analyses: RNA was isolated from cell lysates using Qiagen 96 Total RNA kit. cDNA was synthesized and plated in triplicates in 384-well plates. RT-qPCR was performed using TaqMan Fast-Advanced master mix and TaqMan reagents and primers (18S, rplp0, angplt4) and analyzed using a Thermo Fisher Scientific QuantStudio 6 Flex PCR system. Relative gene expression was analyzed using the fold difference algorithm (2∧(−ΔΔCt)) using the geomean of 2 housekeeping genes (18S, RPLPO) compared to relevant vehicle control.

| Structure (SMILES) | reversal of synthetic PPAR agonist activity on Angptl4 mRNA expression |
| --- | --- |
| O=C(NCCS(=O)(=O)c1ccc(C(F)(F)F)cn1)c1ccc(Cl)cc1 [GSK3787] | concentration-dependent ability |
| O=C(Nc1ccncc1)c1cc([N+](=O)[O-])ccc1Cl [T0070907] | concentration-dependent ability |
| CCC(=O)NC[C@H](Cc1ccc(OCCc2nc(-c3ccccc3)oc2C)cc1)N/C(C)=C\C(=O)c1ccc(C(F)(F)F)cc1 [GW6471] | concentration-dependent ability |

— US20260027078A1, “Cyclopropane Fatty Acid Modulators Of Peroxisome Proliferator-Activated Receptors” (The Regents of the University of California, priority 2022, published 2026)
